pIC50, pKi: −log10 of the molar value.
Tests used:
[1] = tested on: COLO 205; assay: Antitumor activity against human COLO 205 cells xenografted in athymic nude mouse model assessed as gross log cell kill at 4 mg/kg, ip administered twice daily in presence of gemcitabine (Gemcitabine alone = 0.5%); type: functional
[2] = tested on: COLO 205; assay: Potentiation factor, ratio of IC50 for human COLO 205 cells to IC50 for human COLO 205 cells in presence of SN-38; type: functional
[3] = tested on: COLO 205; assay: Antitumor activity against human COLO 205 cells xenografted in athymic nude mouse model assessed as tumor growth delay by measuring test to control tumor ratio at 7.5 mg/kg, ip administered twice daily in presence of gemcitabine (Gemcitabine alone = 3%); type: functional
[4] = tested on: MDA-MB-231; assay: Potentiation factor, ratio of IC50 for human MDA-MB-231 cells to IC50 for human MDA-MB-231 cells in presence of SN-38; type: functional
[5] = tested on: COLO 205; assay: Antitumor activity against human COLO 205 cells xenografted in athymic nude mouse model assessed as tumor growth inhibition at 7.5 mg/kg, ip administered twice daily in presence of gemcitabine (Gemcitabine alone = 40%); type: functional; details: read-out: TGI
[6] = tested on: HT-29; assay: Potentiation of gemcitabine induced cytotoxicity in human HT-29 cells assessed as cell survival at 180 nM measured after 4 to 48 hrs by coulter counter method relative to gemcitabine alone; type: functional; details: time 4-48 hrs, read-out: Activity
[7] = AUC (0 to infinity) in nu/nu mouse at 4 mg/kg, ip by LCMS analysis; type: ADME, organism-based; details: in vivo
[8] = tested on: COLO 205; assay: Antitumor activity against human COLO 205 cells xenografted in athymic nude mouse model assessed as tumor growth delay by measuring test to control tumor ratio at 40 mg/kg, ip administered twice daily in presence of gemcitabine (Gemcitabine alone= 8%); type: functional
[9] = tested on: MDA-MB-231; assay: Potentiation factor, ratio of IC50 for human MDA-MB-231 cells to IC50 for human MDA-MB-231 cells in presence of gemcitabine; type: functional
[10] = tested on: COLO 205; assay: Antitumor activity against human COLO 205 cells xenografted in athymic nude mouse model assessed as gross log cell kill at 15 mg/kg, ip administered once daily in presence of gemcitabine (Gemcitabine alone = 0.27%); type: functional
[11] = tested on: COLO 205; assay: Potentiation factor, ratio of IC50 for human COLO 205 cells to IC50 for human COLO 205 cells in presence of carboplatin; type: functional
[12] = Cmax in nu/nu mouse at 20 mg/kg, ip by LCMS analysis; type: ADME, organism-based; details: in vivo
[13] = molecular target: Cyclin-dependent kinase 1 (Homo sapiens, UniProt P06493); assay: Binding affinity to CDK1 (unknown origin) assessed as inhibition constant
Sequence of Cyclin-dependent kinase 1 (P06493 whole entry): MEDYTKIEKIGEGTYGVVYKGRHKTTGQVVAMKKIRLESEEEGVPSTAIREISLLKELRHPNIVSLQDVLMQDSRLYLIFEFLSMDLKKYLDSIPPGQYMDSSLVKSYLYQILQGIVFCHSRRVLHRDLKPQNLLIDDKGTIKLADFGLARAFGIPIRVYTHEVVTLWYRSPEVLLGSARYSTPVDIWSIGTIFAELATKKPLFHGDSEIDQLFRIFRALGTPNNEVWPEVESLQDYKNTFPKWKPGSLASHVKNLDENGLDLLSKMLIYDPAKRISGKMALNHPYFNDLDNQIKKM

[14] = Toxicity in athymic nude mouse assessed as effect on body weight at 4 to 20 mg/kg, ip administered once daily in presence of gemcitabine; type: organism-based; details: in vivo, dose 4-20 mg/kg
[15] = tested on: PC-3; assay: Potentiation factor, ratio of IC50 for human PC-3 cells to IC50 for human PC-3 cells in presence of gemcitabine; type: functional
[16] = tested on: COLO 205; assay: Antitumor activity against human COLO 205 cells xenografted in athymic nude mouse model assessed as gross log cell kill at 4 mg/kg, ip administered once daily in presence of gemcitabine (Gemcitabine alone = 0.5%); type: functional
[17] = tested on: COLO 205; assay: Antitumor activity against human COLO 205 cells xenografted in athymic nude mouse model assessed as tumor growth inhibition at 15 mg/kg, ip administered twice daily in presence of gemcitabine (Gemcitabine alone = 40%); type: functional; details: read-out: TGI
[18] = tested on: COLO 205; assay: Antitumor activity against human COLO 205 cells xenografted in athymic nude mouse model assessed as potentiated tumor growth inhibition at 7.5 mg/kg, ip administered twice daily in presence of gemcitabine relative to control; type: functional; details: read-out: TGI
[19] = tested on: HT-29; assay: Potentiation factor, ratio of IC50 for human HT-29 cells to IC50 for human HT-29 cells in presence of gemcitabine; type: functional
[20] = tested on: COLO 205; assay: Antitumor activity against human COLO 205 cells xenografted in athymic nude mouse model assessed as potentiated tumor growth inhibition at 20 mg/kg, ip administered once daily in presence of gemcitabine relative to control; type: functional; details: read-out: TGI
[21] = tested on: MDA-MB-231; assay: Potentiation factor, ratio of IC50 for human MDA-MB-231 cells to IC50 for human MDA-MB-231 cells in presence of carboplatin; type: functional
[22] = tested on: HT-29; assay: Potentiation of gemcitabine induced cytotoxicity in human HT-29 cells assessed as cell survival at 540 nM measured after 4 to 48 hrs by coulter counter method relative to gemcitabine alone; type: functional; details: time 4-48 hrs, read-out: Activity
[23] = tested on: COLO 205; assay: Potentiation factor, ratio of IC50 for human COLO 205 cells to IC50 for human COLO 205 cells in presence of doxorubicin; type: functional
[24] = tested on: COLO 205; assay: Antitumor activity against human COLO 205 cells xenografted in athymic nude mouse model assessed as potentiated tumor growth inhibition at 4 mg/kg, ip administered twice daily in presence of gemcitabine relative to control; type: functional; details: read-out: TGI
[25] = tested on: COLO 205; assay: Antitumor activity against human COLO 205 cells xenografted in athymic nude mouse model assessed as tumor growth delay by measuring test to control tumor ratio at 30 mg/kg, ip administered once daily in presence of gemcitabine (Gemcitabine alone = 3%); type: functional
[26] = tested on: MDA-MB-231; assay: Antiproliferative activity against human MDA-MB-231 cells deficit of p53 expression assessed as inhibition of cell growth measured after 96 hrs by MTT assay; type: functional, cell-based; details: MDA-MB-231, 96 h
[27] = tested on: COLO 205; assay: Potentiation factor, ratio of IC50 for human COLO 205 cells to IC50 for human COLO 205 cells in presence of mytomicin-C; type: functional

Cn1cc(-c2[nH]c3cc(NC(=O)[C@H](N)C4CCCCC4)cc4c3c2C=NNC4=O)cn1
LCK [1]: 0.5 | PF50 [2]: 2.1 | T/C [3]: 13.25 | PF50 [4]: 2.4 | inhibition in vivo at 7.5 mg/kg [5]: 70% | viability at 0.18 µM [6]: 75% | AUC(0-inf) [7]: 490 ng·h/mL | T/C [8]: 20 | PF50 [9]: 3.6 | LCK [10]: 0.71 | PF50 [11]: 5.4 | Cmax [12]: 1290 ng/mL | pKi [13]: 8.00 | Activity [14]: Non-Toxic | PF50 [15]: 12.2 | LCK [16]: 0.5 | inhibition in vivo at 15 mg/kg [17]: 66% | inhibition in vivo at 7.5 mg/kg [18]: 50% | PF50 [19]: 9 | inhibition in vivo at 20 mg/kg [20]: 43% | PF50 [21]: 2.55 | viability at 0.54 µM [22]: 69% | PF50 [23]: 1.1 | inhibition in vivo at 4 mg/kg [24]: 12% | T/C [25]: 7.25 | pIC50 [26]: 5.85 | PF50 [27]: 5.3

Source: ChEMBL document CHEMBL5705884, “Breaching the DNA damage checkpoint via PF-00477736, a novel small-molecule inhibitor of checkpoint kinase 1” (Mol Cancer Ther, 2008)
